“Also recorded” adds a separate entry of the source.
Assays:
[1] = system: type IV collagen NC1 domain sulfilimine crosslink formation; assay: Type IV collagen NC1 domain sulfilimine crosslink (dimer) formation in matrix of cultured PF HR9 cells, western blot; type: cell-based, mouse; details: for effect on NC1 domain sulfilimine crosslink (dimer) formation, in words: increasing concentrations, PF HR9 cell culture matrix, western blot; for inhibition of NC1 dimer (D) formation: PF HR9 mouse endodermal cell matrix, anti-α2 chain western blot
Description: FIG. 9. Methimazole and Phloroglucinol inhibit type IV collagen NC1 domain sulfilimine crosslink formation. NC1 domains were prepared from collagenase digests of extracellular matrix derived from cultured PF HR9 mouse endodermal cells and detected by western blotting with an anti-α2 chain monoclonal antibody.
Standard drug discovery strategies may identify other agents that specifically target the sulfilimine cross-link system with minimal inhibition of other peroxidase systems. In addition, a monoclonal antibody can be generated to inhibit enzyme activity. These agents represent anti-angiogenic oncologic agents that can be translated to clinical medicine with broad application.

[2] = target: T1, human peroxidasin (PXDN) (Homo sapiens, UniProt Q92626); assay: NC1 domain dimerization by HEK293 cells stably transfected with human peroxidasin plated on monomeric PFHR9 matrix; type: cell-based; details: concentration not given
T1 construct: expressed in transfected cells; host or cells: HEK293 (stably transfected)
T1 sequence (Q92626 27-1479): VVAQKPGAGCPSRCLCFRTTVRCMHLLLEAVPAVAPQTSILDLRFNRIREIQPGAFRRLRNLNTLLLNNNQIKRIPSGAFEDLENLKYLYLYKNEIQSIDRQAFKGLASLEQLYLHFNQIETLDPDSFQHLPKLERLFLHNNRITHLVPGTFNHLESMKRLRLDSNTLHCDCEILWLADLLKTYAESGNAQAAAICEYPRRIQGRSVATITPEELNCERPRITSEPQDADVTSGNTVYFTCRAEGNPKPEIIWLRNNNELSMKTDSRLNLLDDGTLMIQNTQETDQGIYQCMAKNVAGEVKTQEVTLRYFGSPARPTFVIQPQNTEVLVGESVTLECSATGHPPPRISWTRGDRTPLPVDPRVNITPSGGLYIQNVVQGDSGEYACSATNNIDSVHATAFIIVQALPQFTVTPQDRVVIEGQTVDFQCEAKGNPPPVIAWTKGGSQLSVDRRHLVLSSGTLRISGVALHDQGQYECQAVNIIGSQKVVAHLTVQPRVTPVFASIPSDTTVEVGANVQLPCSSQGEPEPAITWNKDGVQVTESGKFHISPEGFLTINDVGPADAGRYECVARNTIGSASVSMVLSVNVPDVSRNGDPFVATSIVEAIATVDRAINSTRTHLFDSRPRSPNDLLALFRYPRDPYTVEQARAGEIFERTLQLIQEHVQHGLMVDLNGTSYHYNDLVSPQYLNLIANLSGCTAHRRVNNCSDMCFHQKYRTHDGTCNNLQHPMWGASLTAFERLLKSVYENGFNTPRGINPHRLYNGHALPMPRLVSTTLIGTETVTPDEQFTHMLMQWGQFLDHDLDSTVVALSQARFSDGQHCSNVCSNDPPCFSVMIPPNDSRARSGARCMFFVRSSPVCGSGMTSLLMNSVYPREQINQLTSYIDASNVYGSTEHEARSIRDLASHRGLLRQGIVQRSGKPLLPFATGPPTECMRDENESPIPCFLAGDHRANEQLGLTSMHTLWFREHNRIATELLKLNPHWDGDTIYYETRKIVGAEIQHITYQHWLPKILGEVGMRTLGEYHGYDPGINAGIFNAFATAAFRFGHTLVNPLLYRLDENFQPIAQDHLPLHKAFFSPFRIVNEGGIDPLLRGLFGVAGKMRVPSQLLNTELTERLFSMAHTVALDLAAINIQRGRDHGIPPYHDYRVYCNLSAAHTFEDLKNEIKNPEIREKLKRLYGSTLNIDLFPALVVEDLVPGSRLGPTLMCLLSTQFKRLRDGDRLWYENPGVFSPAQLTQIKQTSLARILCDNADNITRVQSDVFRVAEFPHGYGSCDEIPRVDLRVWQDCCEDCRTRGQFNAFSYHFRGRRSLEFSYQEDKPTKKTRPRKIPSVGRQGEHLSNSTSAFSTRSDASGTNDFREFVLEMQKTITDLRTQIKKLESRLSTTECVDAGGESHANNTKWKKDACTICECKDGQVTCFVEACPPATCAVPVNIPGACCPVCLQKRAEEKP
Source text: FIG. 11. PXDN mediates NC1 domain dimerization. HEK293 stably transfected with human peroxidasin (PXDN) plated on top of monomeric PFHR9 matrix leads to NC1 domain dimerization (middle lanes). […] Placental basement membrane (PBM) NC1 domain is shown for comparison.
Based on these findings, they pursued peroxidasin, a known matrix peroxidase, as a possible candidate for collagen IV dimer and presumably sulfilimine bond formation. […] Peroxidasin was also identified as an endogenous component of the extracellular matrix produced by the HR-9 cells with the use of mass spectrometry.

Structure (SMILES)	effect on NC1 domain sulfilimine crosslink (dimer) formation, in words [1]	effect on NC1 domain sulfilimine crosslink (dimer) formation, in words ([1]; listed as methimazole)	inhibition of NC1 dimer (D) formation ([1]; Phloroglucinol at 5 uM)	inhibition of NC1 dimer (D) formation ([1]; Phloroglucinol at 50 uM)	effect on NC1 domain sulfilimine crosslink (dimer) formation, in words ([1]; listed as phloroglucinol)	NC1 domain dimerization by PXDN transfected HEK293 cells in the presence of inhibitor [2]
Cn1cc[nH]c1=S [Methimazole, methimazole]	decreases crosslinked NC1 dimer (D) while increasing non-crosslinked monomer (M)	inhibit cross-link formation	–	–	–	–
Oc1cc(O)cc(O)c1 [Phloroglucinol, phloroglucinol]	inhibits dimer (D) formation more potently	–	near complete inhibition	complete inhibition	inhibit cross-link formation	No dimer formation was observed; also recorded: fail to lead to dimerization

From US9289417B2, “Compounds and methods for the modulation of sulfilimine bond formation” (VANDERBILT UNIVERSITY, priority 2009, dated 2016)
